Values quoted from earlier work in patent US20240009433A1, “METHODS FOR CONTINUOUS ORAL DRUG DELIVERY” (SynAgile Corporation, priority 2020, published 2024).

Assays:
[1] = in vivo
[2] = in vivo; remark: listed apart in the source
[3] = in vivo; remark: listed apart in the source

| Structure (SMILES) | crossing of the blood-brain barrier [1] | plasma half-life [2] | hepatotoxicity [3] |
| --- | --- | --- | --- |
| CCN(CC)C(=O)/C(C#N)=C/c1cc(O)c(O)c([N+](=O)[O-])c1 [Entacapone] | does not cross the blood-brain barrier | 0.4 to 0.7 h |  |
| Cc1ccc(C(=O)c2cc(O)c(O)c([N+](=O)[O-])c2)cc1 [Tolcapone] | crosses the barrier | 2 to 3 h | use is limited by its hepatotoxicity |
